Test results taken from patent US20250154157A1, “HETEROCYCLIC COMPOUNDS USEFUL FOR TREATING A ERK5-MEDIATED DISEASE” (Cancer Research Technology Limited, priority 2022, published 2025).

Columns and labels:
Assay type in all cases: cell-based
[1] = system: TNBC cells (MDA-MB-231, MDA-MB-468 and SUM159); assay: Immunofluorescence, morphology of TNBC cells (FIG. 10); conditions: 1 μM OS1 or 2.5 μM AX15836; MDA-MB-231, MDA-MB-468, SUM159
Method: (§1) Cells were seeded and treated. Media was aspirated, cells were washed with PBS and subsequently fixed in 10% formalin for 10 minutes. Fixed cells were washed in PBS and then permeablised with 0.1% (v/v) Triton-100 in PBS for 10 minutes. Cells were washed with PBS and the non-specific binding sites were blocked by incubating with 1% BSA for 30 minutes. Targets of interested were identified by incubating with 100 μl of primary antibody diluted in 1% BSA (see table) overnight at 4° C. After washing with PBS, samples were further incubated with species specific secondary antibody coupled to fluorescent tags (see antibody table) for 1 hour in the dark at room temperature. Some samples were further incubated with 100 μl of 1:200 phalloidin (Invitrogen, A12381) in 1% BSA for 2 hours at room temperature to identify actin filament structures. The EZ-slides casing was dismantled as described in manufacturer's instruction and slides were washed in distilled H2O. Samples were incubated with one drop of Mounting Medium with DAPI (abcam) for 5 minutes in the dark at room temperature to visualise the nuclei. A coverslip was added to each slide and allowed to dry at room temperature. Images were acquired on a 3D-Histech Pannoramic-250 microscope slide-scanner using a 20×/0.80 Plan Apochromat objective (Zeiss) and the DAPI, FITC and TRITC filter sets. […] Images were then processed and analysed using ImageJ. […]

[2] = system: EMT, angiogenesis and pro-tumour inflammation genes (N-cadherin, cytokeratin, B1-integrin, VEGF, IL6, IL1b, E-cadherin); assay: qRT-PCR, mRNA levels of EMT, angiogenesis and inflammatory regulators in TNBC cell lines (FIG. 11)
Excerpt: qRT-PCR: Total RNA was isolated from cells using TRIZOL and/or the miRNeasy mini kit (Qiagen). We carried out cDNA synthesis as previously described by Green, D., Eyre, H., Singh, A. et al (Targeting the MAPK7/MMP9 axis for metastasis in primary bone cancer. Oncogene 39, 5553-5569 (2020)). We performed qPCR using the SYBR Green I core kit (Eurogentec). PCR products were detected in the ABI PRISM® 7700 sequence detection system (Thermo Fisher Scientific). We analysed results using the […]. Gene expression was normalised to PGK1 or ACTB.
Relative mRNA levels, compared to internal control PGK1 or ACTB, in three triple negative breast cancer cell lines: MDA-MB-231, MDA-MB-468 and SUM159.

p-ERK5 = biological target: T1, p-ERK5 (Homo sapiens, UniProt Q13164); assay: Immunoblotting in 3 TNBC cell lines (FIG. 8): phospho-ERK5 levels; conditions: at higher doses
T1 construct: endogenous in cells; host or cells: MDA-MB-231, MDA-MB-468, SUM159
T1 sequence (Q13164 whole entry): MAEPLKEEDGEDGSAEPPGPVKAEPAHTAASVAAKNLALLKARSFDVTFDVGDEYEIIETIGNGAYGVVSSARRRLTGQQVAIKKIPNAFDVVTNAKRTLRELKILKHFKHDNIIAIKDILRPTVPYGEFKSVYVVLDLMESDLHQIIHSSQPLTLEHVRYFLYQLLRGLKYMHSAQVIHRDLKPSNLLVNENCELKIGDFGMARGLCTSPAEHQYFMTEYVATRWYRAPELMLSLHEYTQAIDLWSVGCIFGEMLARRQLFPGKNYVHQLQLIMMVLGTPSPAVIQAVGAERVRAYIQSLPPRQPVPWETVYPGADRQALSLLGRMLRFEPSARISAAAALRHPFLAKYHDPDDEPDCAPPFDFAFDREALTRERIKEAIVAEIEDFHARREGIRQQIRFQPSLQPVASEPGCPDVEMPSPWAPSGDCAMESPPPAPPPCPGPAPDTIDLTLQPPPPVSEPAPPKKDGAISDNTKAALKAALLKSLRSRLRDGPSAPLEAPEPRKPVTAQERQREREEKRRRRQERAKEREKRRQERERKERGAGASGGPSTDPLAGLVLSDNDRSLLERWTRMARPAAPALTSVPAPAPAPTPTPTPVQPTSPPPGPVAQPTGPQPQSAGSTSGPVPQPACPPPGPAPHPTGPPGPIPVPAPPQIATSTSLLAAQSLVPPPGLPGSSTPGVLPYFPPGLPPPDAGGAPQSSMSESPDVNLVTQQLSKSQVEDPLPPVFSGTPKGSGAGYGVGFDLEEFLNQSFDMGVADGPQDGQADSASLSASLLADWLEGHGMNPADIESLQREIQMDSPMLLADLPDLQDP
Method: (§2) We extracted proteins in RIPA assay buffer containing protease and phosphatase inhibitors. We resolved extracts (30 μg) by SDS/PAGE and electrophoretically transferred to an Immun-Blot® PVDF membrane (Bio-Rad). Membranes were saturated in 3% non-fat dry milk or 3% BSA and probed overnight at 4° C. with antibodies (1:1,000 dilution unless otherwise indicated) to ERK5, P-ERK5, ERK1/2, BRD4, MEK5 and β-actin. We detected immunocomplexes by enhanced chemiluminescence with IgG coupled to horseradish peroxidase as the secondary anti-rabbit and anti-mouse antibodies (Abcam).
(§3) Left hand side panels are Western blot images, showing the relative expression of proteins in response to a range of doses of OS1. Right hand side panels are graphs quantifying the western blot images to show ERK5, phospho-ERK5, ERK1/2 and BRD4 protein levels relative to the loading control β-actin.

ERK5 [3] = biological target: T2, ERK5 (Homo sapiens, UniProt Q13164); assay: Immunoblotting, 8 point dose response to OS1 in 3 TNBC cell lines (FIG. 8): ERK5 levels; parameters: endogenous in cells; host or cells: MDA-MB-231, MDA-MB-468, SUM159
T2 sequence (Q13164 whole entry): as above
Method: as §2, §3

ERK1/2 [4] = assay: Repeated dosing of OS1 up to 2 weeks, immunoblotting (FIG. 9): ERK1/2; conditions: 1 μM every 48 h for up to two weeks, TNBC cell lines
ERK5 [5] = biological target: T2, ERK5; assay: Immunoblotting, comparison with Example 7 of WO2021061894 in MDA-MB-468 cells (FIGS. 12 and 13): ERK5; parameters: endogenous in cells; host or cells: MDA-MB-468; conditions: 48 hours after a single dose, relative to b-actin
Method: as §2, with “ERK5,” for “ERK5, P-ERK5, ERK1/2,”
(§4) OS1 and OS11 degrade EKR5 at lower concentrations than Comparative Example 7. OS1 is efficacious at degrading ERK5 at doses of 0.1 μM and OS11 at 0.01 μM. In contrast, a dose of 5 μM of Comparative Example 7 is required to achieve analogous ERK5 degradation to 0.1 μM OS1 or 0.01 μM OS11.

BRD4 [6] = biological target: T3, BRD4 (Homo sapiens, UniProt O60885); assay: Immunoblotting, specificity testing in 3 TNBC cell lines (FIG. 8): BRD4 levels; parameters: endogenous in cells; conditions: range of doses
Method: as §2, §3

ERK1/2 [7] = assay: Immunoblotting, specificity testing in 3 TNBC cell lines (FIG. 8): ERK1/2 levels; conditions: range of doses
Method: as §2, §3

ERK5 [8] = biological target: T2, ERK5; assay: Immunofluorescence, ERK5 staining in TNBC cells (FIG. 10); parameters: endogenous in cells; host or cells: MDA-MB-231, MDA-MB-468, SUM159; conditions: 1 μM OS1, TNBC cell lines
Method: as §1

BRD4 [9] = biological target: T3, BRD4; assay: Repeated dosing of OS1 up to 2 weeks, immunoblotting (FIG. 9): BRD4; parameters: endogenous in cells; conditions: 1 μM every 48 h for up to two weeks, TNBC cell lines
Method: as §2, with “ERK5,” for “ERK5, P-ERK5, ERK1/2,”

BRD4 [10] = biological target: T3, BRD4; assay: Immunoblotting, comparison with Example 7 of WO2021061894 in MDA-MB-468 cells (FIGS. 12 and 13): BRD4; parameters: endogenous in cells; host or cells: MDA-MB-231, MDA-MB-468, SUM159; conditions: 48 hours after a single dose, Comparative Example 7 at 5 μM
Method: as §2, with “ERK5,” for “ERK5, P-ERK5, ERK1/2,”
as §4

MEK5 = biological target: T4, MEK5 (Homo sapiens, UniProt Q13163); assay: Repeated dosing of OS1 up to 2 weeks, immunoblotting (FIG. 9): MEK5; conditions: 1 μM every 48 h for up to two weeks, TNBC cell lines
T4 construct: endogenous in cells; host or cells: MDA-MB-231, MDA-MB-468, SUM159
T4 sequence (Q13163 1-448): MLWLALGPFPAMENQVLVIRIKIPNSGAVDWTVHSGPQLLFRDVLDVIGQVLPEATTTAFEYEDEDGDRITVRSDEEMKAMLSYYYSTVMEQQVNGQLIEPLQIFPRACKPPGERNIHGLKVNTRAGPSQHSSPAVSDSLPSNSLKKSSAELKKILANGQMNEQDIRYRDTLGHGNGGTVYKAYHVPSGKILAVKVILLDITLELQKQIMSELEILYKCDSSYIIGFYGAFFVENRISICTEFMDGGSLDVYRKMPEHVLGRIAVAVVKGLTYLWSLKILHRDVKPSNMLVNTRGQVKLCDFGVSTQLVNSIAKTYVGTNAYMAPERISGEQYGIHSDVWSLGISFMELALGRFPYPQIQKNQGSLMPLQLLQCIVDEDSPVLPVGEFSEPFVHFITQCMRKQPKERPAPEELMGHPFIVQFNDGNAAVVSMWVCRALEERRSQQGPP
Method: as §2, with “ERK5,” for “ERK5, P-ERK5, ERK1/2,”

[11] = 24 h treatment, mRNA relative to PGK1 or ACTB, three TNBC cell lines

## CCOc1cc(C(=O)N2CCC(N3CCN(C)CC3)CC2)ccc1Nc1ncc2c(n1)N(S(C)(=O)=O)c1ccccc1C(=O)N2C [AX15836, 5,11-Dihydro-2-[[2-ethoxy-4-[[4-(4-methyl-1-piperazinyl)-1-piperidinyl]carbonyl]phenyl]amino]-5-methyl,11-(methylsulfonyl)-6H-pyrimido[4,5-b][1,4]benzodiazepin-6-one, reference compound]
[1]
  effect on morphology of TNBC cells: does not
[2]; [11]
  expression of genes that promote EMT, migration and metastatic behaviour (N-cadherin, cytokeratin, B1-integrin), angiogenesis (VEGF) and pro-tumour inflammation (IL6, IL1b): not

## CCOc1cc(C(=O)N2CCC(N3CCN(CCCCCc4cccc5c4C(=O)N(C4CCC(=O)NC4=O)C5=O)CC3)CC2)ccc1Nc1ncc2c(n1)N(S(C)(=O)=O)c1ccccc1C(=O)N2C (stereo not drawn) [OS1, 2-(2,6-Dioxopiperidin-3-yl)-4-(5-(4-(1-(3-ethoxy-4-((5-methyl-11-(methylsulfonyl)-6-oxo-6,11-dihydro-5H-benzo[e]pyrimido[5,4-b][1,4]diazepin-2-yl)amino)benzoyl)piperidin-4-yl)piperazin-1-yl)pentyl)isoindoline-1,3-dione]
p-ERK5
  kinase inhibitor activity (p-ERK5 on immunoblot): reduction in p-ERK5
ERK5 [3]; TNBC cell lines
  dose inducing the hook effect: 10 µM
  most effective dose for ERK5 degradation: 1 µM
ERK5 [3]; range of TNBC cell lines (MDA-MB-231, MDA-MB-468, SUM159), western blot relative to β-actin
  ERK5 degraded: > 90%
[1]
  effect on morphology of TNBC cells: affects morphology
ERK1/2 [4]
  effect of repeated dosing on ERK1/2: no effect
ERK5 [5]
  dose efficacious at degrading ERK5 (analogous ERK5 degradation): 0.1 μM
BRD4 [6]
  off target effects on known off-target of literature ERK5 inhibitors (BRD4): no off target effects
ERK1/2 [7]
  off target effects on structurally similar proteins (ERK1/2): no off target effects
[2]; 0.1 or 1 μM tested, 24 h
  dose most effective in affecting gene expression: 1 µM
[2]; [11]
  expression of genes that block EMT, migration and metastatic behaviour (E-cadherin): increase in expression
  expression of genes that promote EMT, migration and metastatic behaviour (N-cadherin, cytokeratin, B1-integrin), angiogenesis (VEGF) and pro-tumour inflammation (IL6, IL1b): induces a loss of expression
ERK5 [8]
  ERK5 staining (green), immunofluorescence: loss of ERK5 staining
BRD4 [9]
  effect of repeated dosing on BRD4: no effect
BRD4 [10]
  degradation of off-target BRD4: do not cause degradation
MEK5
  effect of repeated dosing on MEK5: unaffected
